From US5545547A, “Enzymes as agricultural chemical adjuvants” (priority 1992, dated 1996)

Legend:
Type in all cases: in vivo
Alfalfa = assay: Greenhouse multispecies herbicide screen with/without P. mendocina enzyme
Procedure: (§1) Several plant species including weeds and crops are used in these experiments.
(§2) A number of herbicides from various chemical classes were compared in a multispecies screen for percent chlorosis, necrosis and vigor reduction both with and without application of the enzyme from Pseudomonas mendocina ATCC 53552 described earlier. […] Two different enzyme concentrations were used: 0.5 mg/ml (HE) and 0.05 mg/ml (LE) and applied at the rate of 40 gallons/acre. All spraying solutions were at pH 10 and contained 100 mm sodium phosphate each. […] All the experiments were carried out in a greenhouse.
(§3) Chlorosis--figures represent percent of plants showing chlorosis.
(§4) Necrosis--figures represent percent of plants showing necrosis.
(§5) Vigor--figures represent percent of plants showing decreased vigor.
(§6) Phytotoxicity--figures represent the average percent of chlorosis, necrosis, and vigor for a given sample.

Barnyard Grass = assay: as above
Procedure: as §1, §2, §3, §4, §5, §6

various plants = assay: Greenhouse multispecies herbicide screen, statements on all tested plants; settings: High HYVAR; all other tested conditions; after two weeks
Description: as §1
A number of herbicides from various chemical classes were compared in a multispecies screen for percent chlorosis, necrosis and vigor reduction both with and without application of the enzyme from Pseudomonas mendocina ATCC 53552 described earlier. The herbicides were applied to various plants at the manufacturers recommended doses and at 10% and 40% of the recommended dose. Two different enzyme concentrations were used: 0.5 mg/ml (HE) and 0.05 mg/ml (LE) and applied at the rate of 40 gallons/acre. All spraying solutions were at pH 10 and contained 100 mm sodium phosphate each. […] All the experiments were carried out in a greenhouse.

[1] = HYVAR 10% dose, High Enzyme, one week after treatment
[2] = HYVAR 10% dose, Low Enzyme, one week after treatment
[3] = HYVAR 10% dose, No Enzyme, one week after treatment
[4] = HYVAR 18%, High Enzyme, two weeks after treatment
[5] = HYVAR 18%, Low Enzyme, two weeks after treatment
[6] = HYVAR 18%, No Enzyme, two weeks after treatment
[7] = HYVAR 40% dose, High Enzyme, one week after treatment
[8] = HYVAR 40% dose, Low Enzyme, one week after treatment
[9] = HYVAR 40% dose, No Enzyme, one week after treatment
[10] = HYVAR 100% dose, No Enzyme, one week after treatment

`CCC(C)n1c(=O)[nH]c(C)c(Br)c1=O` (stereo not drawn) [HYVAR, 5-bromo-6-methyl-3-(1-methylpropyl)-2,4-(1H,3H)-pyrimidinedione] was tested, and the “CHL (chlorosis)” value (Alfalfa; [1]) was 18%, the “NEC (necrosis)” value (Alfalfa; [1]) was 0% and the “PHY (phytotoxicity)” value (Alfalfa; [1]) was 10%. For the same molecule, the “VIG (vigor)” value (Alfalfa; [1]) was 10%, the “CHL (chlorosis)” value (Alfalfa; [2]) was 50% and the “NEC (necrosis)” value (Alfalfa; [2]) was 5%. For the same molecule, the “PHY (phytotoxicity)” value (Alfalfa; [2]) was 28%, the “VIG (vigor)” value (Alfalfa; [2]) was 30% and the “CHL (chlorosis)” value (Alfalfa; [3]) was 10%. The “NEC (necrosis)” value (Alfalfa; [3]) was 5%, the “PHY (phytotoxicity)” value (Alfalfa; [3]) was 8% and the “VIG (vigor)” value (Alfalfa; [3]) was 10%. The “CHL (chlorosis)” value (Alfalfa; [4]) was 100%, the “NEC (necrosis)” value (Alfalfa; [4]) was 100% and the “PHY (phytotoxicity)” value (Alfalfa; [4]) was 100%. For the same molecule, the “VIG (vigor)” value (Alfalfa; [4]) was 100%, the “CHL (chlorosis)” value (Alfalfa; [5]) was 100% and the “NEC (necrosis)” value (Alfalfa; [5]) was 100%. For the same molecule, the “PHY (phytotoxicity)” value (Alfalfa; [5]) was 100%, the “VIG (vigor)” value (Alfalfa; [5]) was 100% and the “CHL (chlorosis)” value (Alfalfa; [6]) was 55%. The “NEC (necrosis)” value (Alfalfa; [6]) was 58%, the “PHY (phytotoxicity)” value (Alfalfa; [6]) was 57% and the “VIG (vigor)” value (Alfalfa; [6]) was 58%. For the same molecule, the “CHL (chlorosis)” value (Alfalfa; [7]) was 30%, the “NEC (necrosis)” value (Alfalfa; [7]) was 13% and the “PHY (phytotoxicity)” value (Alfalfa; [7]) was 24%. For the same molecule, the “VIG (vigor)” value (Alfalfa; [7]) was 30%, the “CHL (chlorosis)” value (Alfalfa; [8]) was 30% and the “NEC (necrosis)” value (Alfalfa; [8]) was 30%. The “PHY (phytotoxicity)” value (Alfalfa; [8]) was 37%, the “VIG (vigor)” value (Alfalfa; [8]) was 50% and the “CHL (chlorosis)” value (Alfalfa; [9]) was 25%. For the same molecule, the “NEC (necrosis)” value (Alfalfa; [9]) was 5%, the “PHY (phytotoxicity)” value (Alfalfa; [9]) was 15% and the “VIG (vigor)” value (Alfalfa; [9]) was 15%. For the same molecule, the “CHL (chlorosis)” value (Alfalfa; [10]) was 50%, the “NEC (necrosis)” value (Alfalfa; [10]) was 10% and the “PHY (phytotoxicity)” value (Alfalfa; [10]) was 37%. The “VIG (vigor)” value (Alfalfa; [10]) was 50%, the “CHL (chlorosis)” value (Barnyard Grass; [1]) was 25% and the “NEC (necrosis)” value (Barnyard Grass; [1]) was 10%. For the same molecule, the “PHY (phytotoxicity)” value (Barnyard Grass; [1]) was 28%, the “VIG (vigor)” value (Barnyard Grass; [1]) was 50% and the “CHL (chlorosis)” value (Barnyard Grass; [2]) was 50%. For the same molecule, the “NEC (necrosis)” value (Barnyard Grass; [2]) was 18%, the “PHY (phytotoxicity)” value (Barnyard Grass; [2]) was 39% and the “VIG (vigor)” value (Barnyard Grass; [2]) was 50%. For the same molecule, the “CHL (chlorosis)” value (Barnyard Grass; [3]) was 30%, the “NEC (necrosis)” value (Barnyard Grass; [3]) was 25% and the “PHY (phytotoxicity)” value (Barnyard Grass; [3]) was 28%. For the same molecule, the “VIG (vigor)” value (Barnyard Grass; [3]) was 30%, the “CHL (chlorosis)” value (Barnyard Grass; [4]) was 95% and the “NEC (necrosis)” value (Barnyard Grass; [4]) was 88%. The “PHY (phytotoxicity)” value (Barnyard Grass; [4]) was 90%, the “VIG (vigor)” value (Barnyard Grass; [4]) was 88% and the “CHL (chlorosis)” value (Barnyard Grass; [5]) was 88%. For the same molecule, the “NEC (necrosis)” value (Barnyard Grass; [5]) was 85%, the “PHY (phytotoxicity)” value (Barnyard Grass; [5]) was 86% and the “VIG (vigor)” value (Barnyard Grass; [5]) was 85%. For the same molecule, the “CHL (chlorosis)” value (Barnyard Grass; [6]) was 85%, the “NEC (necrosis)” value (Barnyard Grass; [6]) was 78% and the “PHY (phytotoxicity)” value (Barnyard Grass; [6]) was 80%. The “VIG (vigor)” value (Barnyard Grass; [6]) was 78%, the “CHL (chlorosis)” value (Barnyard Grass; [7]) was 55% and the “NEC (necrosis)” value (Barnyard Grass; [7]) was 50%. For the same molecule, the “PHY (phytotoxicity)” value (Barnyard Grass; [7]) was 45%, the “VIG (vigor)” value (Barnyard Grass; [7]) was 30% and the “CHL (chlorosis)” value (Barnyard Grass; [8]) was 55%. For the same molecule, the “NEC (necrosis)” value (Barnyard Grass; [8]) was 60%, the “PHY (phytotoxicity)” value (Barnyard Grass; [8]) was 59% and the “VIG (vigor)” value (Barnyard Grass; [8]) was 63%. For the same molecule, the “CHL (chlorosis)” value (Barnyard Grass; [9]) was 65%, the “NEC (necrosis)” value (Barnyard Grass; [9]) was 30% and the “PHY (phytotoxicity)” value (Barnyard Grass; [9]) was 50%. The “VIG (vigor)” value (Barnyard Grass; [9]) was 55%, the “CHL (chlorosis)” value (Barnyard Grass; [10]) was 50% and the “NEC (necrosis)” value (Barnyard Grass; [10]) was 60%. For the same molecule, the “PHY (phytotoxicity)” value (Barnyard Grass; [10]) was 62%, the “VIG (vigor)” value (Barnyard Grass; [10]) was 75% and the kill (various plants) was 100%.
